{"source": "patent US20090246269A1", "about": "“IDENTIFICATION AND USE OF GPRC VARIANTS IN THE TREATMENT AND DIAGNOSIS OF PARKINSON'S DISEASE” (priority 2006, published 2009)", "target": "T1, BDKRB2 reference form (Homo sapiens, UniProt P30411)", "T1 construct": "expressed in transfected cells; host or cells: CHO-K1", "T1 sequence (P30411 1-391)": "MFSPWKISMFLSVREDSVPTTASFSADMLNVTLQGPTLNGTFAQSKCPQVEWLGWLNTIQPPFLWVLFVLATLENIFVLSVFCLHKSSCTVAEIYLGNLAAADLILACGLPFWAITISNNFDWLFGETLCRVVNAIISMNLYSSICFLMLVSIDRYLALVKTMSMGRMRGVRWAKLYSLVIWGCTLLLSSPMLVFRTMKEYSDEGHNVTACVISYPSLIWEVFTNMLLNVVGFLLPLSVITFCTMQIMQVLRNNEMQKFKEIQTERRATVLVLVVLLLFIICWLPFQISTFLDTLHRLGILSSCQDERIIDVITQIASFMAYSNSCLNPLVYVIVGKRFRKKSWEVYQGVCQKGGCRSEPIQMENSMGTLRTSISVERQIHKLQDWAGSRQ", "experiment": "NFAT-Firefly luciferase reporter assay (Dual-Glo) of BDKRB2 dependent signaling in transfected CHO-K1 cells", "type": "cell-based", "settings": "8 hour time-point", "description": "FIG. 10: Effect of bradyzide titration on the activity of BDKRB2 reference form. CHO-K1 cells were transfected with pNFAT—Firefly Luciferase reporter, BDKBR2-pcDNA3.1 and pGL4.73 [hRenilla Luciferase/SV40]. 18 hrs after transfection, cells were treated with bradyzide at indicated concentration in 10% FBS medium for 8, 24 and 48 hrs. The Firefly luciferase reporter activity and the renilla luciferase activity were measured sequentially. BDKRB2 activity was estimated by calculating the Ratios of Firefly and Renilla Luciferase Units (RLU).\nThe Promega Dual-Glo™ Assay system was used to indirectly monitor BDKRB2 dependent signaling.", "data": [{"compound": "CN(C)CCN(C)CCNC(=O)[C@@H]1CCCN1S(=O)(=O)c1ccc(NNC(=S)NC(c2ccccc2)c2ccccc2)c([N+](=O)[O-])c1", "note": "[bradyzide]", "values": [{"measurement": "inhibition of serum induced activity in luciferase reporter assay", "result": "inhibited"}, {"measurement": "reduction of serum-induced basal BDKRB2 activity", "setting": "bradyzide titration, 10% FBS medium", "result": "about 40%"}]}]}
